Data: US20090270350A1, “Pyridinone Pyrazole Urea and Pyrimidinone Pyrazole Urea Derivatives” (PFIZER INC., priority 2006, published 2009)

What was measured:
[1] = biological target: p38α (Homo sapiens, UniProt Q16539); assay: p38α/MK2 cascade assay; assay type: biochemical; conditions: Table 2; same p38α/MK2 cascade assay; 40 minutes preincubation; read-out: p38a/MK2 Cascade 40 min Pre-Incuabtion (% Inhibition): IC50
Method in brief: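 In a cascade format, p38α was preincubated 40 min with inhibitor (1000–0.05 nM) before adding 1 nM nonactive MK2 (54-400), 5 μM MgATP and 0.5 μM FITC-Hsp27 peptide. Reaction ran 60 min in HEPES pH 7.5 with MgCl2, DTT, 2% DMSO, then EDTA-quenched. Peptide phosphorylation was measured by Caliper mobility shift to give IC50.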

Chain of p38α (Q16539 whole entry): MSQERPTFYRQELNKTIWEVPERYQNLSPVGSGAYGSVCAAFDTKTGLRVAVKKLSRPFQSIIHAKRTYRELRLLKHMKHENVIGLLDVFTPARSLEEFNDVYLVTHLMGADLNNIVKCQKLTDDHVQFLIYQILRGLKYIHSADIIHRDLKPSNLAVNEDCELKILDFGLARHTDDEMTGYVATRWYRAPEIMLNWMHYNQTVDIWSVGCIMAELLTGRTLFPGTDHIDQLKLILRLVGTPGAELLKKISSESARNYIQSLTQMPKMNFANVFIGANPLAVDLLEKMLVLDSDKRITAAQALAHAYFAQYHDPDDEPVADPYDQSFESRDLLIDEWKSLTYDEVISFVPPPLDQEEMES

Row | melting point [°C] | IC50 [1] [nM] | Structure (SMILES)
1 | 147 to 148 | – | COC(=O)c1ccc(C)c(-n2c(C)cc(OCc3ccccc3CNC(=O)Nc3cc(C(C)(C)C)nn3-c3cccc(OCCO)c3)c(Cl)c2=O)c1 [Example 130, 3-{4-[2-(3-{5-tert-Butyl-2-[3-(2-hydroxy-ethoxy)-phenyl]-2H-pyrazol-3-yl}-ureidomethyl)-benzyloxy]-3-chloro-6-methyl-2-oxo-2H-pyridin-1-yl}-4-methyl-benzoic acid methyl ester]
2 | 162 to 163 | – | Cc1ccc(C(=O)NCCO)cc1-n1c(C)cc(OCc2ccccc2CNC(=O)Nc2cc(C(C)(C)C)nn2-c2cccc(OCCO)c2)c(Cl)c1=O [Example 132, 3-{4-[2-(3-{5-tert-Butyl-2-[3-(2-hydroxy-ethoxy)-phenyl]-2H-pyrazol-3-yl}-ureidomethyl)-benzyloxy]-3-chloro-6-methyl-2-oxo-2H-pyridin-1-yl}-N-(2-hydroxy-ethyl)-4-methyl-benzamide]
3 | – | 121 | CSc1ccccc1Cn1c(C)cc(OCc2ccccc2CNC(=O)Nc2cc(C(C)(C)C)nn2-c2ccc(Cl)c(O)c2)c(Cl)c1=O [Example 273, 1-[3-tert-butyl-1-(4-chloro-3-hydroxyphenyl)-1H-pyrazol-5-yl]-3-{2-[({3-chloro-6-methyl-1-[2-(methylthio)benzyl]-2-oxo-1,2-dihydropyridin-4-yl}oxy)methyl]benzyl}urea]
4 | – | 3.6 | Cc1cc(OCc2ccccc2CNC(=O)Nc2cc(C(C)(C)C)nn2-c2ccc(O)c(Cl)c2)c(Cl)c(=O)n1Cc1ccc(CNC(=O)CN)cc1 [Example 274, N-[4-({4-[(2-{[({[3-tert-butyl-1-(3-chloro-4-hydroxyphenyl)-1H-pyrazol-5-yl]amino}carbonyl)amino]methyl}benzyl)oxy]-3-chloro-6-methyl-2-oxopyridin-1(2H)-yl}methyl)benzyl]-glycinamide]
5 | – | 53.7 | COc1ccccc1Cn1c(C)cc(OCc2ccccc2CNC(=O)Nc2cc(C(C)(C)C)nn2-c2ccc(Cl)c(O)c2)c(C)c1=O [Example 275, 1-[3-tert-butyl-1-(4-chloro-3-hydroxyphenyl)-1H-pyrazol-5-yl]-3-[2-({[1-(2-methoxybenzyl)-3,6-dimethyl-2-oxo-1,2-dihydropyridin-4-yl]oxy}methyl)benzyl]urea]
6 | – | 20.5 | COc1ccccc1Cn1c(C)cc(OCc2ccccc2CNC(=O)Nc2cc(C(C)(C)SC)nn2-c2cccc(O)c2)c(Cl)c1=O [Example 276, 1-[2-({[3-chloro-1-(2-methoxybenzyl)-6-methyl-2-oxo-1,2-dihydropyridin-4-yl]oxy}methyl)benzyl]-3-{1-(3-hydroxyphenyl)-3-[1-methyl-1-(methylthio)ethyl]-1H-pyrazol-5-yl}ure]
7 | – | 131 | CSc1ccccc1Cn1c(C)cc(OCc2ccccc2CNC(=O)Nc2cc(C(C)(C)C)nn2-c2ccc(Cl)c(O)c2)c(C)c1=O [Example 277, 1-[3-tert-butyl-1-(4-chloro-3-hydroxyphenyl)-1H-pyrazol-5-yl]-3-{2-[({3,6-dimethyl-1-[2-(methylthio)benzyl]-2-oxo-1,2-dihydropyridin-4-yl}oxy)methyl]benzyl}urea]
8 | – | 13.2 | CSc1ccccc1Cn1c(C)cc(OCc2ccccc2CNC(=O)Nc2cc(C(C)(C)C)nn2-c2cccc(O)c2)c(C)c1=O [Example 278, 1-[3-tert-butyl-1-(3-hydroxyphenyl)-1H-pyrazol-5-yl]-3-{2-[({3,6-dimethyl-1-[2-(methylthio)benzyl]-2-oxo-1,2-dihydropyridin-4-yl}oxy)methyl]benzyl}urea]
9 | – | 3.67 | CNC(=O)c1ccc(C)c(-n2c(C)cc(OCc3ccc(F)cc3CNC(=O)Nc3cc(C(C)(C)C)nn3-c3ccc(C)cc3)c(Br)c2=O)c1 [Example 279, 3-{3-bromo-4-[(2-{[({[3-tert-butyl-1-(4-methylphenyl)-1H-pyrazol-5-yl]amino}carbonyl)-amino]methyl}-4-fluorobenzyl)oxy]-6-methyl-2-oxopyridin-1(2H)-yl}-N,4-dimethylbenzamide]
